# In PubChem BioAssay AID1259407 (Chemical Carcinogenesis Research Information System (CCRIS), 2018):
# Calls of active or inactive are those of the source. How the calls were made is not given here.
# System: CCRIS mutagenicity, Ames/micronucleus/aberration tests
# Test: CCRIS mutagenicity studies
# [1] = Test System: AMES SALMONELLA TYPHIMURIUM, Strain/Indicator: TA98, Metabolic Activation: NONE, Method: STANDARD PLATE
# [2] = Test System: AMES SALMONELLA TYPHIMURIUM, Strain/Indicator: TA100, Metabolic Activation: NONE, Method: STANDARD PLATE
# [3] = Test System: AMES SALMONELLA TYPHIMURIUM, Strain/Indicator: TA1537, Metabolic Activation: NONE, Method: STANDARD PLATE
structure (smiles),measurement,setting,value
Nc1cc(S(=O)(=O)O)cc2c1C(=O)/C(=N/Nc1ccc(-c3ccc(N/N=C4/C(=O)c5c(N)cc(S(=O)(=O)O)cc5C=C4S(=O)(=O)O)cc3)cc1)C(S(=O)(=O)O)=C2,mutagenic call,"End Point: IN VITRO CHROMOSOMAL ABERRATIONS, Test System: CHINESE HAMSTER OVARY CELLS, Metabolic Activation: NONE",inactive; negative
same,mutagenic call,"End Point: IN VITRO CHROMOSOMAL ABERRATIONS, Test System: CHINESE HAMSTER OVARY CELLS, Metabolic Activation: RAT, LIVER, S-9, AROCLOR 1254",inactive; negative
same,mutagenic call,"Test System: AMES SALMONELLA TYPHIMURIUM, Strain/Indicator: TA98, Metabolic Activation: HAMSTER, LIVER, S-9, Method: PREINCUBATION (PRIVAL METHOD)",active; positive
same,mutagenic call,[1],inactive; negative
same,mutagenic call,"Test System: AMES SALMONELLA TYPHIMURIUM, Strain/Indicator: TA98, Metabolic Activation: RAT, LIVER, S-9, PHENOBARBITAL, Method: STANDARD PLATE",inactive; negative
same,mutagenic call,"Test System: AMES SALMONELLA TYPHIMURIUM, Strain/Indicator: TA100, Metabolic Activation: HAMSTER, LIVER, S-9, Method: PREINCUBATION (PRIVAL METHOD)",active; positive
same,mutagenic call,[2],active; positive
same,mutagenic call,"Test System: AMES SALMONELLA TYPHIMURIUM, Strain/Indicator: TA100, Metabolic Activation: RAT, LIVER, S-9, PHENOBARBITAL, Method: STANDARD PLATE",inactive; negative
same,mutagenic call,"Test System: AMES SALMONELLA TYPHIMURIUM, Strain/Indicator: TA1538, Metabolic Activation: RAT, LIVER, S-9, AROCLOR 1254, Method: STANDARD PLATE",inactive; negative
same,mutagenic call,"Test System: Mouse lymphoma, Strain/Indicator: L5178Y (tk+/tk-), Metabolic Activation: None, Method: Suspension/plate",inactive; negative
same,mutagenic call,"Test System: Mouse lymphoma, Strain/Indicator: L5178Y (tk+/tk-), Metabolic Activation: Rat, Liver, S-9, Aroclor 1254, Method: Suspension/plate",inactive; equivocal (previous results negative)
Nc1ccn([C@@H]2O[C@H](COP(=O)(O)O)[C@@H](O)[C@H]2O)c(=O)n1,mutagenic call,"Test System: AMES SALMONELLA TYPHIMURIUM, Strain/Indicator: TA97, Metabolic Activation: NONE, Method: PREINCUBATION",inactive; negative
same,mutagenic call,"Test System: AMES SALMONELLA TYPHIMURIUM, Strain/Indicator: TA97, Metabolic Activation: RAT, LIVER, S-9, AROCLOR 1254, Method: PREINCUBATION",inactive; negative
same,mutagenic call,"Test System: AMES SALMONELLA TYPHIMURIUM, Strain/Indicator: TA102, Metabolic Activation: NONE, Method: PREINCUBATION",inactive; negative
same,mutagenic call,"Test System: AMES SALMONELLA TYPHIMURIUM, Strain/Indicator: TA102, Metabolic Activation: RAT, LIVER, S-9, AROCLOR 1254, Method: PREINCUBATION",inactive; negative
CCN(CC)CCNc1ccc2ncn3c4ccc(O)cc4c(=O)c1c23,mutagenic call,[3],active; positive
same,mutagenic call,"Test System: AMES SALMONELLA TYPHIMURIUM, Strain/Indicator: TA1537, Metabolic Activation: S-9, Method: STANDARD PLATE",active; positive
same,mutagenic call,"Test System: CHINESE HAMSTER V-79, Strain/Indicator: V-79 (HGPRT)/6-THIOGUANINE, Metabolic Activation: NONE",active; positive
Cc1c(C)c2c3c(ccc2c2ccccc12)[C@@H](O)[C@H](O)[C@@H]1O[C@H]31,mutagenic call,[2],active; positive
CC(=O)OCC1=CO[C@@H](OC(=O)CC(C)C)[C@H]2C1=C[C@H](OC(=O)CC(C)C)[C@]21CO1,mutagenic call,[1],inactive; negative
same,mutagenic call,"Test System: AMES SALMONELLA TYPHIMURIUM, Strain/Indicator: TA98, Metabolic Activation: RAT, LIVER, S-9, AROCLOR 1254, Method: STANDARD PLATE",inactive; negative
same,mutagenic call,[2],inactive; negative
same,mutagenic call,"Test System: AMES SALMONELLA TYPHIMURIUM, Strain/Indicator: TA100, Metabolic Activation: RAT, LIVER, S-9, AROCLOR 1254, Method: STANDARD PLATE",active; positive
same,mutagenic call,"Test System: AMES SALMONELLA TYPHIMURIUM, Strain/Indicator: TA1535, Metabolic Activation: NONE, Method: STANDARD PLATE",inactive; negative
same,mutagenic call,"Test System: AMES SALMONELLA TYPHIMURIUM, Strain/Indicator: TA1535, Metabolic Activation: RAT, LIVER, S-9, AROCLOR 1254, Method: STANDARD PLATE",inactive; negative
same,mutagenic call,[3],inactive; negative
same,mutagenic call,"Test System: AMES SALMONELLA TYPHIMURIUM, Strain/Indicator: TA1537, Metabolic Activation: RAT, LIVER, S-9, AROCLOR 1254, Method: STANDARD PLATE",inactive; negative
same,mutagenic call,"Test System: E. COLI, Strain/Indicator: WP2, Metabolic Activation: NONE, Method: STANDARD PLATE",inactive; negative
same,mutagenic call,"Test System: E. COLI, Strain/Indicator: WP2, Metabolic Activation: RAT, LIVER, S-9, AROCLOR 1254, Method: STANDARD PLATE",inactive; negative
same,mutagenic call,"Test System: E. COLI, Strain/Indicator: WP2 UVRA, Metabolic Activation: NONE, Method: STANDARD PLATE",active; positive
same,mutagenic call,"Test System: E. COLI, Strain/Indicator: WP2 UVRA, Metabolic Activation: RAT, LIVER, S-9, AROCLOR 1254, Method: STANDARD PLATE",inactive; negative
